Holding throughout (format): functional
In experiment [1] the test system is Staphylococcus aureus. Kind of experiment: Antibacterial activity against methicillin-resistant Staphylococcus aureus assessed as inhibition of bacterial growth incubated for 18 to 24 hrs by CLSI protocol based Tryptic soy broth method. As to conditions: time 18-24 hrs.
For experiment [2], the system named is Staphylococcus aureus. Kind of experiment: Antibacterial activity against Staphylococcus aureus ATCC 25923 assessed as inhibition of bacterial growth incubated for 18 to 24 hrs by CLSI protocol based Tryptic soy broth method. To be noted: time 18-24 hrs.
Experiment [3] has as its system Enterococcus faecalis. Kind of experiment: Antibacterial activity against Enterococcus faecalis ATCC 29212 assessed as inhibition of bacterial growth incubated for 18 to 24 hrs by CLSI protocol based Tryptic soy broth method. To be noted: time 18-24 hrs.
Experiment [4] concerns Staphylococcus epidermidis. Kind of experiment: Antibacterial activity against Staphylococcus epidermidis ATCC 12228 assessed as inhibition of bacterial growth incubated for 18 to 24 hrs by CLSI protocol based Tryptic soy broth method. As to conditions: time 18-24 hrs.
Experiment [5] deals with Enterococcus faecalis. Kind of experiment: Antibacterial activity against Streptococcus faecalis NCIM 2080 assessed as inhibition of bacterial growth incubated for 24 hrs by serial dilution method.
The test system of a further experiment is Pseudomonas aeruginosa. Nature of the experiment: Antibacterial activity against Pseudomonas aeruginosa NCIM 5210 assessed as inhibition of bacterial growth incubated for 24 hrs by serial dilution method.
The subject of the next experiment is Klebsiella pneumoniae. Kind of experiment: Antibacterial activity against Klebsiella pneumoniae NCIM 5289 assessed as inhibition of bacterial growth incubated for 24 hrs by serial dilution method.
The next experiment deals with Escherichia coli. Kind of experiment: Antibacterial activity against Escherichia coli NCIM 2065 assessed as inhibition of bacterial growth incubated for 24 hrs by serial dilution method.
For experiment [6], the system named is Bacillus subtilis. Nature of the experiment: Antibacterial activity against Bacillus subtilis NCIM 2097 assessed as inhibition of bacterial growth incubated for 24 hrs by serial broth dilution method. (In general: Broth dilution looks for growth in wells or tubes with falling amounts of substance.)
Experiment [7] relates to Staphylococcus aureus. Kind of experiment: Antibacterial activity against Staphylococcus aureus NCIM 5257 assessed as inhibition of bacterial growth incubated for 24 hrs by serial broth dilution method.
Another experiment relates to Enterococcus. Kind of experiment: Antibacterial activity against vancomycin-resistant Enterococcus assessed as inhibition of bacterial growth by CLSI protocol based method.
Experiment [8] deals with Staphylococcus aureus. Kind of experiment: Antibacterial activity against methicillin-resistant Staphylococcus aureus assessed as inhibition of bacterial growth by CLSI protocol based method.
Experiment [9] relates to Staphylococcus aureus. Kind of experiment: Antibacterial activity against Staphylococcus aureus ATCC 29213 assessed as inhibition of bacterial growth by CLSI protocol based method.
The test system of experiment [10] is Staphylococcus aureus. Nature of the experiment: Antibacterial activity against Staphylococcus aureus assessed as inhibition of bacterial growth measured per 100 uL incubated for 24 hrs by agar well diffusion method. In general terms: Agar diffusion results depend on both activity and mobility in agar.
The test system of experiment [11] is Bacillus subtilis. Nature of the experiment: Antibacterial activity against Bacillus subtilis assessed as inhibition of bacterial growth measured per 100 uL incubated for 24 hrs by agar well diffusion method.

SMILES strings stand for the structures. Values after ≈ are worked out from the molar mass of the structure shown. Bounds are passed on as bounds.

For `CC(=O)NC[C@H]1CN(c2ccc(OCc3nc(C)c(C)nc3C)cc2)C(=O)O1`, the MIC with Staphylococcus aureus [1] came out at 8 µg/mL (≈ 20.8 µM); in the experiment on Staphylococcus aureus [2] it was 16 µg/mL (≈ 41.6 µM); with Enterococcus faecalis [3], 32 µg/mL (≈ 83.2 µM); in experiment [4], 16 µg/mL (≈ 41.6 µM).

Take `O=C(/C=C/c1ccc(Cl)cc1)c1ccc(-c2ccc(N3C[C@H](CO)OC3=O)cc2)cc1`: the MIC in the experiment with Enterococcus faecalis [5], with Pseudomonas aeruginosa, in the experiment with Klebsiella pneumoniae, in the experiment on Escherichia coli, with Bacillus subtilis [6] and with Staphylococcus aureus [7] was 3.12 µg/mL (≈ 7.2 µM) throughout.

As to `Cc1nc(C)c(COc2ccc(N3C[C@H](Cn4ccnn4)OC3=O)cc2F)nc1C`, the MIC in the experiment on Staphylococcus aureus [1] stood at 4 µg/mL (≈ 9.7 µM); in the experiment on Staphylococcus aureus [2], 8 µg/mL (≈ 19.4 µM); in the experiment with Enterococcus faecalis [3] it was 32 µg/mL (≈ 77.6 µM); in [4], 8 µg/mL (≈ 19.4 µM).

`Cc1nc(C)c(COc2ccc(N3C[C@H](CNC(=O)c4ccco4)OC3=O)cc2)nc1C`: the MIC with Staphylococcus aureus [1] was 64 µg/mL (≈ 147 µM); in the experiment with Staphylococcus aureus [2] it was 128 µg/mL (≈ 293 µM); in the experiment on Enterococcus faecalis [3], over 128 µg/mL; in experiment [4], 64 µg/mL (≈ 147 µM).

As to `CC(=O)NC[C@H]1CN(c2ccc(N3CCN(/N=C/c4c(Cl)cccc4[N+](=O)[O-])CC3)c(F)c2)C(=O)O1`, the MIC with Enterococcus, in the experiment with Staphylococcus aureus [8] and in the experiment with Staphylococcus aureus [9] was 8 µg/mL (≈ 15.4 µM) each time.

On to `Cc1nc(C)c(COc2ccc(N3C[C@H](CNC(=O)CCl)OC3=O)cc2F)nc1C`, for which the MIC in the experiment on Staphylococcus aureus [1] turned out to be 2 µg/mL (≈ 4.58 µM); with Staphylococcus aureus [2], 8 µg/mL (≈ 18.3 µM); in the experiment on Enterococcus faecalis [3] it was 8 µg/mL (≈ 18.3 µM); in experiment [4] it was 4 µg/mL (≈ 9.16 µM).

For `O=C(O)c1cn(C2CC2)c2cc(N3CCNCC3)c(F)cc2c1=O` [CIPROFLOXACIN], the MIC in the experiment on Staphylococcus aureus [10] and in the experiment with Bacillus subtilis [11] was 6.25 µg throughout.

Turning to `CC(=O)NC[C@H]1CN(c2ccc(N3CCN(/N=C/c4ccc([N+](=O)[O-])s4)CC3)c(F)c2)C(=O)O1`, the MIC was found to be 2 µg/mL (≈ 4.08 µM) in the experiment on Enterococcus, 1 µg/mL (≈ 2.04 µM) in the experiment on Staphylococcus aureus [8] and 0.25 µg/mL (≈ 0.51 µM) in the experiment on Staphylococcus aureus [9].

For the molecule `CC(=O)NC[C@H]1CN(c2ccc(N3CCOCC3)c(F)c2)C(=O)O1` [LINEZOLID], the MIC in the experiment with Enterococcus was determined as 2 µg/mL (≈ 5.93 µM).

`Cc1nc(C)c(COc2ccc(N3C[C@H](CO)OC3=O)cc2F)nc1C`: the MIC turned out to be 64 µg/mL (≈ 177 µM) in the experiment with Staphylococcus aureus [1], 64 µg/mL (≈ 177 µM) in the experiment on Staphylococcus aureus [2], 64 µg/mL (≈ 177 µM) in the experiment on Enterococcus faecalis [3] and 128 µg/mL (≈ 354 µM) in experiment [4].

For the molecule `Cc1nc(C)c(COc2ccc(N3C[C@H](CNC(=O)c4ccco4)OC3=O)cc2F)nc1C`, the MIC in the experiment with Staphylococcus aureus [1] is 32 µg/mL (≈ 70.4 µM); in the experiment on Staphylococcus aureus [2], 32 µg/mL (≈ 70.4 µM); in the experiment with Enterococcus faecalis [3], 128 µg/mL (≈ 282 µM); in experiment [4] it was 16 µg/mL (≈ 35.2 µM).

As to `CC(=O)NC[C@H]1CN(c2ccc(N3CCN(/N=C/c4ccc([N+](=O)[O-])o4)CC3)c(F)c2)C(=O)O1`, the MIC with Enterococcus was 1 µg/mL (≈ 2.11 µM); in the experiment with Staphylococcus aureus [8], 1 µg/mL (≈ 2.11 µM); in the experiment with Staphylococcus aureus [9], 0.25 µg/mL (≈ 0.527 µM).

As for `Cc1nc(C)c(COc2ccc(N3C[C@H](Cn4ccnn4)OC3=O)cc2)nc1C`, the MIC turned out to be 32 µg/mL (≈ 81.1 µM) with Staphylococcus aureus [1], 64 µg/mL (≈ 162 µM) in the experiment with Staphylococcus aureus [2], 128 µg/mL (≈ 325 µM) with Enterococcus faecalis [3] and 64 µg/mL (≈ 162 µM) in experiment [4].

`CCCCc1cn(C[C@H]2CN(c3ccc(OCc4nc(C)c(C)nc4C)c(F)c3)C(=O)O2)nn1`: the MIC (in the experiment with Staphylococcus aureus [1]; in the experiment with Staphylococcus aureus [2]; with Enterococcus faecalis [3]; in [4]) was over 128 µg/mL throughout.

Turning to `CC(=O)NC[C@H]1CN(c2ccc(N3CCN(/N=C(\C)Cn4c([N+](=O)[O-])cnc4C)CC3)c(F)c2)C(=O)O1`, the MIC in the experiment with Enterococcus amounted to 4 µg/mL (≈ 7.74 µM); in the experiment with Staphylococcus aureus [8] it was 1 µg/mL (≈ 1.94 µM); in the experiment with Staphylococcus aureus [9] it was 1 µg/mL (≈ 1.94 µM).

In the case of `COCC(=O)NC[C@H]1CN(c2ccc(OCc3nc(C)c(C)nc3C)cc2)C(=O)O1`, the MIC in the experiment on Staphylococcus aureus [1] is 64 µg/mL (≈ 154 µM); in the experiment on Staphylococcus aureus [2], over 128 µg/mL; in the experiment with Enterococcus faecalis [3] it was over 128 µg/mL; in [4], 128 µg/mL (≈ 309 µM).

`COc1ccc(/C=C/C(=O)c2ccc(-c3ccc(N4C[C@H](CO)OC4=O)cc3)cc2)cc1`: the MIC in the experiment with Enterococcus faecalis [5], in the experiment with Pseudomonas aeruginosa, in the experiment with Klebsiella pneumoniae, in the experiment on Escherichia coli, in the experiment with Bacillus subtilis [6] and in the experiment with Staphylococcus aureus [7] was 3.12 µg/mL (≈ 7.28 µM) each time.
